US11931373B2, “HSP90 activator AHA1 drives production of pathological tau aggregates” (University of South Florida, priority 2017, dated 2024)

Columns and labels:
Hsp90 = assay: Luciferase refolding assay in PC3-MM2 cells; format: cell-based; conditions: 2 hours; for Hsp90-mediated refolding of denatured luciferase: 0.097-100 μM; for IC50 of Hsp90-mediated luciferase refolding activity: concentrations examined 100, 25, 6.25, 1.56, 0.39 and 0.097 μM
Procedure: Luciferase refolding assay. Compound dissolved in DMSO at the indicated concentrations or a DMSO control was evaluated in a luciferase refolding assay in PC3-MM2 cells as previously described (Hall, et al. J. Med. Chem. 2016, 59, 925-933) and dose-response curves of the luminescence signal relative to DMSO control were generated using GraphPad Prism 5.0.

Aha1 and Hsp90 complexes = molecular target: T1, Aha1 and Hsp90 complexes (Homo sapiens, UniProt O95433); assay: Co-immunoprecipitation of Hsp90α with Aha1 from PC3-MM2 cells; format: cell-based; conditions: 10 μM, 24 hours
T1 construct: endogenous in cells; host or cells: PC3-MM2 cells
Procedure: (§1) Co-immunoprecipitation. Co-immunoprecipitation of Hsp90α with Aha1 from PC3-MM2 and iHek P301L cells incubated with the indicated compounds for 24 hours were performed as previously described (Ghosh, et al. ACS Chem. Biol. 2015, 10, 577-590).

binding of Aha1 to Hsp90 = molecular target: T2, binding of Aha1 to Hsp90 (Homo sapiens, UniProt O95433); assay: Co-immunoprecipitation of Hsp90 with Aha1 from iHEK cells; format: cell-based; conditions: 10 μM, 24 hours
T2 construct: Immunoprecipitated Aha1 from iHEK cells treated±10 μM KU-177 for 24 hours; endogenous in cells; host or cells: iHEK-P301L cells (tetracycline-inducible P301L tau)
Procedure: (§2) Cell culture and transfection. iHek-P301L cells (Ghosh, et al. ACS Med. Chem. Lett. 2016, 7, 813-818) and luciferase expressing PC3-MM2 cells (Ghosh, et al. ACS Med. Chem. Lett. 2016, 7, 813-818) were cultured in DMEM media supplemented with 10% FBS and 1% Penicillin-Streptomycin (Invitrogen). Inducible cells were incubated with 3 μg of tetracycline for 72 h. 48 h prior to harvest, transfections were performed with 2.5 μL Lipofectamine 2000 (Invitrogen) per 1 μg of DNA, which was incubated in serum-free Opti-MEM for 5 minutes before adding the mixture dropwise to the cells. KU-177 was added 24 h prior to harvest at indicated concentrations. Cells were harvested in Tsaio TBS buffer (50 mM Tris Base, 274 mM NaCl, 5 mM KCl, pH 8.0) containing protease inhibitors. Samples were prepared as previously described (Ramsden, et al. J. Neurosci. 2005, 25, 10637-10647) to obtain soluble (S1) and sarkosyl-insoluble (P3) fractions.
as §1

tau in iHEK-P301L cells = assay: Soluble and sarkosyl-insoluble tau in iHEK-P301L cells (Western blot); format: cell-based; conditions: 10 μM
Procedure: as §2
Western blot and dot blot analysis. Cell and mouse brain tissues samples were analyzed by Western blot using 4-15% SDS gradient gels (BioRad). Antibody dilutions were 1:1000 unless otherwise stated, and all secondary antibodies were used at 1:1000 (Southern Biotech). Blots were developed using ECL (Pierce) on a LAS-4000 mini imager (GE Healthcare). For dot blots, proteins were applied onto a wet nitrocellulose membrane and dried by vacuum. […]

[1] = test system: recombinant P301L tau fibrils; assay: Transmission electron microscopy of tau fibrils; format: biochemical, human; conditions: KU-177 vs DMSO control
Procedure: (§3) Protein Expression. Recombinant human P301L tau, Aha1, Aha1 E67K, p23, FKBP51, FKBP52, and CDC37 were expressed and purified. Hsp90α protein was a kind gift from Dr. Johannes Buchner. Recombinant human P301L tau, Aha1, Aha1 E67K, p23, FKBP51, FKBP52, and CDC37 were cloned into bacterial expression vector, pet28a with a His tag followed by a TEV sequence. Plasmids were transformed into E. coli (BL21) one-shot star cells and plated onto kanamycin-agar plates. Plates were grown at 37° C. for approximately 16 hours. 10 mL LB broth with kanamycin starter cultures were then inoculated with a colony and the starter culture grown for 8 hours. 1 L cultures were then inoculated at 1:100 dilution and grown to OD600 of 0.8. Cultures were induced with the addition of 1 mM IPTG and the incubator temperature was reduced to 16° C. Cultures were then grown for 14 hours. Cells were then pelleted at 3,500×g for 30 minutes and supernatant discarded. Pellets were resuspended in lysis buffer (20 mM Tris-HCl pH 8.0, 500 mM NaCl, 10 mM Imidazole with protease inhibitors) and frozen at −80° C. Bacterial pellets were then thawed and lysed by sonication. Lysates were then spun at 50,000×g for 1 hr. Next, the supernatant was purified by nickel affinity chromatography (Nickel Resin, Fisher #PI88222). Protein purity and expression was then checked by Coomassie stained SDS-PAGE. […]

[2] = molecular target: T3, Recombinant human P301L tau with Hsp90 and Aha1 (Homo sapiens, UniProt O95433); assay: Thioflavin T fluorescence assay of tau fibril formation; format: biochemical; conditions: 10 μM compound vs DMSO, tau with Hsp90 alone or Hsp90 and Aha1
T3 construct: His tag (with TEV site) (N, cleaved yes); made in house; host or cells: E. coli (BL21) one-shot star, pet28a (tau and Aha1); Hsp90α was a gift from Dr. Johannes Buchner
Procedure: as §3, with “hr.” for “hr. Next, the supernatant was purified by nickel affinity chromatography (Nickel Resin, Fisher #PI88222). Protein purity and expression was then checked by Coomassie stained SDS-PAGE.”
Thioflavin T Fluorescence Assay. […] Fluorescence was read at 440 nm excitation and 482 nm emission in a BioTek Synergy H1 plate reader at indicated time points. […]

T1 sequence (O95433 whole entry, one chain of several): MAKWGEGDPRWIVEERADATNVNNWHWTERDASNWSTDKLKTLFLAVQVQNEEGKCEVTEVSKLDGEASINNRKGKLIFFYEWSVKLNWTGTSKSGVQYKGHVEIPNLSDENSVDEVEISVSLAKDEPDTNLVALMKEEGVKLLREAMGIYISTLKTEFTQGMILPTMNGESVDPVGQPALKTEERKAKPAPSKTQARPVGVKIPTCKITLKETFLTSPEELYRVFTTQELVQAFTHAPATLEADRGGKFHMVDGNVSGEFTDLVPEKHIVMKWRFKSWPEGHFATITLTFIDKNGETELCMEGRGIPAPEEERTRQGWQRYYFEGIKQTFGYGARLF
T3 sequence (O95433 whole entry, stated change not applied): as the sequence (O95433 whole entry, one chain of several) above

Aha1 and Hsp90 complexes (immunoprecipitation of Aha1, Western blot) (Aha1 and Hsp90 complexes) | binding of Aha1 to Hsp90 (immunoprecipitation of Aha1, Western blot) (binding of Aha1 to Hsp90) | Structure (SMILES) | Hsp90-mediated refolding of denatured luciferase (Hsp90) | IC50 of Hsp90-mediated luciferase refolding activity (Hsp90) | sarkosyl-insoluble tau (tau in iHEK-P301L cells; iHEK-P301L cells transfected with Aha1-WT, Aha1-E67K or empty vector) | soluble, phosphorylated tau (tau in iHEK-P301L cells; iHEK-P301L cells) | tau fibril formation observed by TEM [1] | Recombinant P301L tau fibril formation measured by ThT fluorescence [2]
inhibited |  | COc1cccc(-c2cc(C(=O)Nc3cc4ccc(O)c(OC)c4oc3=O)ccc2OC)c1 [KU-308] | did not inhibit | higher than the range of concentrations examined here |  |  |  | 
inhibited |  | COc1cccc(-c2cc(C(=O)Nc3cc4ccc(O[C@@H]5OC(C)(C)[C@H](OC)C(O)[C@@H]5O)c(OC)c4oc3=O)ccc2OC)c1 (stereo partly shown) [KU-174] | inhibited |  |  |  |  | 
inhibited | inhibited the binding of Aha1 to Hsp90 | COc1cccc(-c2cc(C(=O)Nc3cc4ccc(OC(C)=O)c(OC)c4oc3=O)ccc2OC)c1 [KU-177] | did not inhibit | higher than the range of concentrations examined here | reduce insoluble tau | increased soluble, phosphorylated tau | robust reduction in tau fibril formation | significantly reduce tau fibril formation
